{
  "source": "patent US20050048113A1",
  "about": "“Composition and method for treatment or prevention of oral cavity disorders” (priority 2003, published 2005)",
  "key": {"[1]": {"system": "proton-translocating membrane ATPases of oral streptococci", "conditions": "cited from earlier work"}, "[2]": {"system": "male participants suffering from gingivitis", "assay": "Loe Silness gingival index (GI) in participants suffering from gingivitis", "assay_type": "in vivo, human", "method": "Twelve male participants (24-42 years old) suffering from gingivitis were divided into 4 groups. Participants of the first group (No.=3) were treated by conventional oral hygiene procedures, including mechanical procedures and usage of mouthwash preparations for 3 months. Participants of the second group (No. =3) were treated by swallowing tablet of Famotidine 40 mg, once daily at bed time, for 3 months. Participants of the third group (No.=3) were treated by sublingual tablet of Famotidine 40 mg, once daily at bed time, for 3 months. Participants of the fourth group (No.=3) were treated by sublingual tablet of Omeprazole 20 mg, once daily at bed time, for 3 months. All participants were screened for dental caries and treated accordingly.\nEach participant was examined at recruitment and after then bi-weekly up to 3 months from recruitment (7 examinations for each participant). At each visit gingival index was determined using a standard Loe Silness gingival index (GI) chart, which is accessible at the following website: http://www.medal.org/sheets/ch9/gingival %20index %20Loe %20Silness.xls.\nThe GI scores of examination No.7 (at 3 months from recruitment) compared to GI scores at examination No.1 (at recruitment), were calculated as mean GI reduction for each group."}, "[3]": {"conditions": "famotidine 40 mg per day, sublingual vs p.o. vs no treatment, 3 weeks each; pH 1, 2, 3 hours after a meal and at wakeup; preliminary results", "method": "An ongoing study is now being carried out on healthy young (25-40 years old) volunteers. The oral cavity pH is measured 1, 2, and 3 hours after a meal and at wakeup in the morning. These measurements are done daily for each participant, 3 weeks without treatment, 3 weeks under sublingual famotidine (40 mg per day), and 3 weeks under p.o. famotidine (40 mg per day)."}, "[4]": {"system": "-person suffering from accelerated cariogenicity and progressive gingivitis"}, "[5]": {"conditions": "Famotidine 40 mg per day, tablets swallowed, half year later"}},
  "data": [
    {"compound": "C[C@@H]1O[C@@H](O[C@H]2C[C@@H](O)[C@]3(CO)[C@H]4[C@H](O)C[C@]5(C)[C@@H](C6=CC(=O)OC6)CC[C@]5(O)[C@@H]4CC[C@]3(O)C2)[C@H](O)[C@H](O)[C@H]1O", "note": "[ouabain]", "values": [
      {"measurement": "sensitivity of proton-translocating membrane ATPases to the inhibitor", "setting": "[1]", "result": "insensitive"}
    ]},
    {"compound": "COc1ccc2[nH]c([S+]([O-])Cc3ncc(C)c(OC)c3C)nc2c1", "note": "(stereo not shown) [Omeprazole]", "values": [
      {"measurement": "mean GI reduction", "setting": "[2]; sublingual tablet 20 mg once daily at bed time, 3 months vs recruitment (fourth group)", "result": 27.5, "unit": "%"}
    ]},
    {"compound": "C(=NC1CCCCC1)=NC1CCCCC1", "note": "[dicyclohexylcarbodiimide]", "values": [
      {"measurement": "sensitivity of proton-translocating membrane ATPases to the inhibitor", "setting": "[1]", "result": "sensitive"}
    ]},
    {"compound": "[O]=[V]([O-])([O-])[O-]", "note": "[vanadate]", "values": [
      {"measurement": "sensitivity of proton-translocating membrane ATPases to the inhibitor", "setting": "[1]", "result": "insensitive"}
    ]},
    {"compound": "NC(N)=Nc1nc(CSCCC(N)=NS(N)(=O)=O)cs1", "note": "[Famotidine]", "values": [
      {"measurement": "rank order of the highest oral cavity pH", "setting": "[3]", "result": "Sublingual Famotidine treatment>p.o. Famotidine treatment>no treatment"},
      {"measurement": "epigastric symptoms", "setting": "[4]; [5]", "result": "relieved"},
      {"measurement": "symptoms of reflux", "setting": "[4]; [5]", "result": "persisted"},
      {"measurement": "reflux symptoms", "setting": "[4]; famotidine tablets taken sublingually instead of swallowed", "result": "relieved"},
      {"measurement": "new caries at twice a year dental follow-ups", "setting": "[4]; next 5 years under sublingual famotidine treatment", "result": "new caries were not detected"},
      {"measurement": "gingivitis", "setting": "[4]; sublingual famotidine, in the following months", "result": "improved dramatically"},
      {"measurement": "mean GI reduction", "setting": "[2]; sublingual tablet 40 mg once daily at bed time, 3 months vs recruitment (third group)", "result": 31, "unit": "%"},
      {"measurement": "mean GI reduction", "setting": "[2]; swallowed tablet 40 mg once daily at bed time, 3 months vs recruitment (second group)", "result": 17.1, "unit": "%"}
    ]},
    {"compound": "[N-]=[N+]=[N-]", "note": "[azide]", "values": [
      {"measurement": "sensitivity of proton-translocating membrane ATPases to the inhibitor", "setting": "[1]", "result": "sensitive"}
    ]}
  ]
}
